From paper PMC4859512, “Polyamino-Isoprenic Derivatives Block Intrinsic Resistance of P. aeruginosa to Doxycycline and Chloramphenicol In Vitro” (PLoS ONE, 2016)
Values joined by “and” are separate entries in the source; they are usually repeats but may differ in a detail not shown here. Equal values may be shown once.

Tests used:
[1] = tested on: P. aeruginosa CMZ091 (Mex XY overproducer); assay: Antibiotic susceptibility testing (broth micro-dilution MIC), strain CMZ091; type: cell-based, Pseudomonas aeruginosa
[2] = tested on: P. aeruginosa FB1 (Mex B deleted); assay: Antibiotic susceptibility testing (broth micro-dilution MIC), strain FB1; type: cell-based; settings: Pseudomonas aeruginosa, read-out: Minimal Inhibitory Concentration
Procedure: Experiments were performed on the BAC-SCREEN platform of the UMR-MD1, with a Freedom EVO 150 liquid handling system (Tecan, Lyon, France).

[3] = tested on: twenty clinical isolates of P. aeruginosa; assay: Combined antibiotic / polyamino-isoprenic derivative on MH agar plates, clinical isolates; type: cell-based, Pseudomonas aeruginosa
Procedure: MH agar plates were prepared, containing 2 mg/L doxycycline and 2 mg/L doxycycline in combination with compounds at a concentration of 10 μM. Bacteria, 5 μL of a suspension of each clinical isolate adjusted to 5 x 10^5 colony-forming units per ml were spotted on each plate and growth was monitored after a 18 h period of incubation at 37°C.
PA01 is a well-studied reference strain of P. aeruginosa, however to extend our study we considered strains recently isolated from hospitalized patients. Thus, we decided to test this combination of doxycycline (2mg/L) with polyamino-isoprenic compounds (10 μM) on twenty clinical isolates recently isolated from the HIA-Laveran (see M&M section and S1 Table).

[4] = tested on: P. aeruginosa PA01; assay: Comparison of efficiency between compounds and PAßN (compound gradient with 2 mg/L doxycycline); type: cell-based, Pseudomonas aeruginosa; settings: for concentration needed to inhibit growth in the presence of doxycycline: PA01, doxycycline 2 mg/L, 18 h
Procedure: Serial dilutions of each compound (from 270 μM to 0.95 μM for PAßN and from 135 μM to 0.06 μM for 3) were prepared in microplates. Doxycycline (2 mg/L) was then added to each well before inoculation of bacteria (5x10^5 cfu/mL). Optical density (600 nm) was measured after 18 hours at 37°C. Only the relevant part of the graphs are shown. Experiments were performed in triplicate.
First, we performed a checkerboard assay to analyze the synergy between doxycycline and the polyamino-isoprenic compound and between doxycycline and PAβN. For both, compound 3 and PAβN we observed a synergistic inhibition of growth when combined with doxycycline with a FIC Index of 0.09 (S2 Table). […] PAßN is generally used at a concentration greater than 10 μM to inhibit the resistance of P. aeruginosa with respect to various antibiotics, and, to our knowledge, no data have been reported in the literature on its use in combination with doxycycline. The percentage of growth inhibition was monitored as a function of compound concentration, and the results are presented in Fig 3.

[5] = tested on: P. aeruginosa PA01; assay: Checkerboard assay with doxycycline; type: cell-based, Pseudomonas aeruginosa; settings: PA01
Procedure: Serial two-fold dilutions of antimicrobial agents were mixed together in a microtiter plate. The range of concentration of each drug was twice the MIC, down to the eleventh serial two-fold dilutions below this amount. Doxycycline was serially diluted along the X-axis, and the polyamino-isoprenic compound or PAßN was diluted along the Y-axis as indicated. Each well was inoculated with a bacterial inoculum of 5 x 10^5 CFU/ml, and the plates were incubated at 37°C for 18 h under aerobic conditions. Each plate also contained a row and a column in which a serial dilution of polyamino-isoprenic compound or doxycycline, respectively, was present alone to determine the MIC. The FIC index was calculated as follows: FIC index = FIC A + FIC B, where FIC A is the MIC of drug A in the combination/MIC of drug A alone and FIC B is the MIC of drug B in the combination/MIC of drug B alone. The combination was considered synergistic when the FIC index is ≤0.5, and antagonistic when the FIC index is > 4 [26].

[6] = tested on: cytoplasmic membrane of PA01; assay: Inner membrane depolarization assay (Disc3(5) fluorescence); type: cell-based, Pseudomonas aeruginosa; settings: PA01, Disc3(5) fluorescence
Procedure: Inner membrane depolarization assay
Cells were grown to a mid-
logarithmic phase, recovered by centrifugation (3000 X g for 20 min) and washed in 5 mM 4-(2-
hydroxyethyl)piperazine-1-ethanesulfonic acid (HEPES, pH 7.0) containing 10 mM EDTA. After 5
min incubation at room temperature, cells were recovered by centrifugation (3000 X g for 20
min), and resuspended in 5 mM HEPES (pH 7.0) containing 50 mM glucose, OD600 nm was
adjusted to 0.29. Five µl of a 160 µM suspension of [3,3’-Dipropylthiadicarbocyanine iodide]
(Disc3(5)) were added after 90 sec to 100 µl of a bacterial suspension, in a 96-well Greiner black
microplate, to reach 8 µM final concentration. After a 16.5 min incubation period allowing
incorporation of the dye into the polarized membrane, 10 µl of the appropriate compound
concentration were added. Fluorescence was monitored every 30 sec on an Infinite M200
microplate reader (Tecan; excitation wavelength 622nm and emission wavelength 690nm).
Assays were performed in two independent experiments and statistically significance was
assessed using a student’s t-test. A p-value ≤ 0.05 was considered significant.
(1 picture or pasted object on this page, not shown here)

[7] = chloramphenicol 4 mg/L + compound 10 μM
[8] = doxycycline MIC in the combination 0.0625 µg/ml
[9] = doxycycline MIC in the combination 0.125 µg/ml
[10] = doxycycline MIC in the combination 0.25 µg/ml
[11] = doxycycline MIC in the combination 0.5 µg/ml
[12] = doxycycline MIC in the combination 1 µg/ml
[13] = doxycycline MIC in the combination 2 µg/ml
[14] = doxycycline MIC in the combination 4 µg/ml
[15] = doxycycline MIC in the combination 8 µg/ml
[16] = doxycycline MIC in the combination 16 µg/ml

With `CC(C)=CCCC(C)=CCCC(C)=CCNCCCNCCCCNCCCN` [Compound 3] the “MIC of Amikacin in the presence of the compound” value ([1]; CMZ091, compound 10µM) was greater than 64 µg/mL, the “MIC of Ceftazidime in the presence of the compound” value ([1]; CMZ091, compound 10µM) was 2 µg/mL and the “MIC of Ciprofloxacin in the presence of the compound” value ([1]; CMZ091, compound 10µM) was 0.25 µg/mL. The “MIC of Ticarcillin in the presence of the compound” value ([1]; CMZ091, compound 10µM) was 8 µg/mL, the MIC ([1]; Pseudomonas aeruginosa, read-out: Minimal Inhibitory Concentration) was 25 µg/mL and 62.5 µM and the MIC [2] was 25 µg/mL and 62.5 µM. The clinical isolates resistant [3, 7] was 25%, the “clinical isolates resistant (number of 20)” value [3, 7] was 5 and the “clinical isolates whose growth was impaired” value [3, 7] was 75%. The “clinical isolates whose growth was impaired (number of 20)” value ([3]; chloramphenicol 4 mg/L + compound 10 μM, data not shown) was 15, the “MIC ratio (doxycycline)” value ([3]; clinical isolates, with compound) was 32 and the “isolates with doxycycline susceptibility restored” value ([3]; doxycycline 2 mg/L + compound 10 μM, 20 clinical isolates) was “total susceptibility of all the considered isolates”. For the same compound, the “concentration needed to inhibit growth in the presence of doxycycline” value [4] was roughly 1.22 mg/L, the “concentration needed to inhibit growth in the presence of doxycycline” value ([4]; graphically determined on Fig 3) was “approximately 3 μM” and the “potency in comparison with PAßN” value ([4]; adjuvant of doxycycline) was “approximately 10 times”. For the same compound, the “Concentration of compound associated” value [5, 8] was 93.75 µM, the FIC index [5, 8] was 1 and the “Concentration of compound associated” value [5, 9] was 46.88 µM. The Effect [5, 9] was “Synergistic (synergistic when the FIC index is ≤0.5)”, the FIC index [5, 9] was 0.50 and the “Concentration of compound associated” value [5, 10] was 23.44 µM. The Effect [5, 10] was “Synergistic (synergistic when the FIC index is ≤0.5)”, the FIC index [5, 10] was 0.26 and the “Concentration of compound associated” value [5, 11] was 11.72 µM. For the same compound, the Effect [5, 11] was “Synergistic (synergistic when the FIC index is ≤0.5)”, the FIC index [5, 11] was 0.14 and the “Concentration of compound associated” value [5, 12] was 5.86 µM. The Effect [5, 12] was “Synergistic (synergistic when the FIC index is ≤0.5)”, the FIC index [5, 12] was 0.09 and the “Concentration of compound associated” value [5, 13] was 2.93 µM. The Effect [5, 13] was “Synergistic (synergistic when the FIC index is ≤0.5)”, the FIC index [5, 13] was 0.09 and the “Concentration of compound associated” value [5, 14] was 2.93 µM. The Effect [5, 14] was “Synergistic (synergistic when the FIC index is ≤0.5)”, the FIC index [5, 14] was 0.16 and the “Concentration of compound associated” value [5, 15] was 0.73 µM. The Effect [5, 15] was “Synergistic (synergistic when the FIC index is ≤0.5)”, the FIC index [5, 15] was 0.26 and the “Concentration of compound associated” value [5, 16] was 0.18 µM. The Effect [5, 16] was “Synergistic (synergistic when the FIC index is ≤0.5)”, the FIC index [5, 16] was 0.50 and the “FIC index” value ([5]; combination with doxycycline) was 0.09. For the same compound, the cytoplasmic membrane depolarization [6] was “dissipated the proton motive force”.
